In ChEMBL document CHEMBL3792309, “Seeking potent anti-tubercular agents: Design, synthesis, anti-tubercular activity and docking study of various ((triazoles/indole)-piperazin-1-yl/1,4-diazepan-1-yl)benzo[d]isoxazole derivatives” (Bioorg Med Chem Lett, 2016):
≈ marks a conversion by molar mass, not a printed value.

Columns and labels:
[1] = tested on: Mycobacterium tuberculosis; test: Antimicrobial activity against Mycobacterium tuberculosis H37Rv by classical test tube method; format: functional
[2] = tested on: Mycobacterium tuberculosis; test: Antimicrobial activity against p-aminosalicylic acid/isonicotinic acid hydrazide/etambutol/rifampicin sensitive Mycobacterium tuberculosis Spec. 192 by classical test tube method; format: functional
[3] = Cytotoxicity against mouse RAW264.7 cells assessed as inhibition of cell viability at 98.8 uM after 72 hrs by CellTiter 96 non radioactive cell proliferation assay; format: cell-based
RAW264.7 = test: Cytotoxicity against mouse RAW264.7 cells assessed as inhibition of cell viability after 72 hrs by CellTiter 96 non radioactive cell proliferation assay; format: cell-based; settings: RAW264.7, 72 h
[4] = Selectivity index, ratio of IC50 for mouse RAW264.7 cells to MIC for Mycobacterium tuberculosis H37Rv; format: toxicity; settings: read-out: Selectivity Index
[5] = Cytotoxicity against mouse RAW264.7 cells assessed as inhibition of cell viability at 113.07 uM after 72 hrs by CellTiter 96 non radioactive cell proliferation assay; format: cell-based
[6] = Cytotoxicity against mouse RAW264.7 cells assessed as inhibition of cell viability at 96.13 uM after 72 hrs by CellTiter 96 non radioactive cell proliferation assay; format: cell-based
[7] = Cytotoxicity against mouse RAW264.7 cells assessed as inhibition of cell viability at 116.78 uM after 72 hrs by CellTiter 96 non radioactive cell proliferation assay; format: cell-based
[8] = tested on: Mycobacterium tuberculosis; test: Antimicrobial activity against Mycobacterium tuberculosis H37Rv assessed as growth inhibition at 257.59 uM by classical test tube method; format: functional; settings: read-out: GI

Row | SMILES | MIC [1] [µM] | MIC [2] [µM] | other results
1 | COc1ccc(-n2cc(CN3CCN(c4noc5ccccc45)CC3)nn2)cc1 | > 200 | > 200 | –
2 | FC(F)(F)c1cc(-n2cc(CN3CCN(c4noc5ccccc45)CC3)nn2)ccc1Br | 6.16 (≈ 3.13 µg/mL) | 6.16 (≈ 3.13 µg/mL) | inhibition at 72 h, 98.8 µM [3]: 22.2%; IC50 (RAW264.7): 223 µM; selectivity ratio [4]: 36.1
3 | CCc1ccc(-n2cc(CN3CCCN(c4noc5ccccc45)CC3)nn2)cc1 | > 200 | > 200 | –
4 | Clc1ccc(-n2cc(CN3CCN(c4noc5cc(Cl)ccc45)CC3)nn2)cc1 | > 200 | > 200 | –
5 | COc1cccc(-n2cc(CN3CCCN(c4noc5ccccc45)CC3)nn2)c1 | > 200 | > 200 | –
6 | O=C(CCc1c[nH]c2ccccc12)N1CCN(c2noc3cc(Cl)ccc23)CC1 | > 200 | > 200 | –
7 | O=C(Cc1c[nH]c2ccccc12)N1CCN(c2noc3ccccc23)CC1 | > 200 | > 200 | –
8 | O=C(Cc1c[nH]c2ccccc12)N1CCCN(c2noc3ccccc23)CC1 | 134 (≈ 50 µg/mL) | 134 (≈ 50 µg/mL) | –
9 | O=C(CCc1c[nH]c2ccccc12)N1CCN(c2noc3ccccc23)CC1 | > 200 | > 200 | –
10 | Clc1ccc(-n2cc(CN3CCN(c4noc5ccccc45)CC3)nn2)cc1 | > 200 | > 200 | –
11 | C#CCN1CCN(c2noc3cc(Cl)ccc23)CC1 | 182 (≈ 50.1 µg/mL) | 182 (≈ 50.1 µg/mL) | –
12 | O=C(Cc1c[nH]c2ccccc12)N1CCN(c2noc3cc(Cl)ccc23)CC1 | 127 (≈ 50.1 µg/mL) | 127 (≈ 50.1 µg/mL) | –
13 | O=[N+]([O-])c1ccc(-n2cc(CN3CCN(c4noc5ccccc45)CC3)nn2)cc1 | > 200 | > 200 | –
14 | Clc1cccc(-n2cc(CN3CCCN(c4noc5ccccc45)CC3)nn2)c1 | 122 (≈ 50.1 µg/mL) | 122 (≈ 50.1 µg/mL) | –
15 | Clc1ccc2c(N3CCN(Cc4cn(-c5ccc(Br)cc5)nn4)CC3)noc2c1 | > 200 | > 200 | –
16 | FC(F)(F)c1cccc(-n2cc(CN3CCCN(c4noc5ccccc45)CC3)nn2)c1 | 28.3 (≈ 12.5 µg/mL) | 28.3 (≈ 12.5 µg/mL) | inhibition at 72 h, 113.07 µM [5]: 31.8%; IC50 (RAW264.7): 178 µM; selectivity ratio [4]: 6.29
17 | Fc1ccc(-n2cc(CN3CCN(c4noc5ccccc45)CC3)nn2)cc1 | 132 (≈ 50 µg/mL) | 132 (≈ 50 µg/mL) | –
18 | Brc1ccc(-n2cc(CN3CCN(c4noc5ccccc45)CC3)nn2)cc1 | > 200 | > 200 | –
19 | Fc1ccc(-n2cc(CN3CCCN(c4noc5ccccc45)CC3)nn2)cc1 | 127 (≈ 50 µg/mL) | 127 (≈ 50 µg/mL) | –
20 | FC(F)(F)c1cc(-n2cc(CN3CCCN(c4noc5ccccc45)CC3)nn2)ccc1Br | 24 (≈ 12.5 µg/mL) | 24 (≈ 12.5 µg/mL) | inhibition at 72 h, 96.13 µM [6]: 26.5%; IC50 (RAW264.7): 181 µM; selectivity ratio [4]: 7.54

Row | SMILES | MIC [1] [µM] | MIC [2] [µM] | other results
21 | O=C(CCCc1c[nH]c2ccccc12)N1CCN(c2noc3cc(Cl)ccc23)CC1 | > 200 | > 200 | –
22 | O=[N+]([O-])c1ccc(-n2cc(CN3CCN(c4noc5cc(Cl)ccc45)CC3)nn2)cc1 | > 200 | > 200 | –
23 | O=[N+]([O-])c1ccc(-n2cc(CN3CCCN(c4noc5ccccc45)CC3)nn2)cc1 | > 200 | > 200 | –
24 | O=C(CCCc1c[nH]c2ccccc12)N1CCN(c2noc3ccccc23)CC1 | > 200 | > 200 | –
25 | O=C(CCCc1c[nH]c2ccccc12)N1CCCN(c2noc3ccccc23)CC1 | > 200 | > 200 | –
26 | Fc1ccc(-n2cc(CN3CCN(c4noc5cc(Cl)ccc45)CC3)nn2)cc1 | 121 (≈ 50.1 µg/mL) | 121 (≈ 50.1 µg/mL) | –
27 | FC(F)(F)c1cccc(-n2cc(CN3CCN(c4noc5ccccc45)CC3)nn2)c1 | 29.2 (≈ 12.5 µg/mL) | 29.2 (≈ 12.5 µg/mL) | IC50 (RAW264.7): 305 µM; selectivity ratio [4]: 10.4; inhibition at 72 h, 116.78 µM [7]: 19.2%
28 | C#CCN1CCN(c2noc3ccccc23)CC1 | > 200 | > 200 | –
29 | O=C(CCc1c[nH]c2ccccc12)N1CCCN(c2noc3ccccc23)CC1 | > 200 | > 200 | –
30 | CCc1ccc(-n2cc(CN3CCN(c4noc5ccccc45)CC3)nn2)cc1 | > 200 | > 200 | inhibition of growth at 257.59 µM [8]: 99%
31 | Clc1cccc(-n2cc(CN3CCN(c4noc5ccccc45)CC3)nn2)c1 | 63.4 (≈ 25 µg/mL) | 63.4 (≈ 25 µg/mL) | –
32 | NNC(=O)c1ccncc1 [ISONIAZID] | 91.1 (≈ 12.5 µg/mL) | 91.1 (≈ 12.5 µg/mL) | –
33 | C#CCN1CCCN(c2noc3ccccc23)CC1 | 196 (≈ 50 µg/mL) | 196 (≈ 50 µg/mL) | –
34 | Clc1ccc(-n2cc(CN3CCCN(c4noc5ccccc45)CC3)nn2)cc1 | > 200 | > 200 | –
35 | Brc1ccc(-n2cc(CN3CCCN(c4noc5ccccc45)CC3)nn2)cc1 | > 200 | > 200 | –
36 | COc1ccc(-n2cc(CN3CCN(c4noc5cc(Cl)ccc45)CC3)nn2)cc1 | 118 (≈ 50.1 µg/mL) | 118 (≈ 50.1 µg/mL) | –
37 | COc1ccc(-n2cc(CN3CCCN(c4noc5ccccc45)CC3)nn2)cc1 | > 200 | > 200 | –
38 | CCc1ccc(-n2cc(CN3CCN(c4noc5cc(Cl)ccc45)CC3)nn2)cc1 | > 200 | > 200 | –
39 | COc1cccc(-n2cc(CN3CCN(c4noc5ccccc45)CC3)nn2)c1 | 128 (≈ 50 µg/mL) | 128 (≈ 50 µg/mL) | –
